The results in this text go back to patent publication US20030050306A1, “Novel heteroaryl derivatives, their preparation and use” (H. Lundbeck A/S, priority 1999, published 2003).

The target in assay [1] is T1, cloned human 5-HT1A receptors (Homo sapiens, UniProt P08908).
T1 construct: expressed in transfected cells; host or cells: HeLa cells (HA7)
T1 sequence (P08908 1-422): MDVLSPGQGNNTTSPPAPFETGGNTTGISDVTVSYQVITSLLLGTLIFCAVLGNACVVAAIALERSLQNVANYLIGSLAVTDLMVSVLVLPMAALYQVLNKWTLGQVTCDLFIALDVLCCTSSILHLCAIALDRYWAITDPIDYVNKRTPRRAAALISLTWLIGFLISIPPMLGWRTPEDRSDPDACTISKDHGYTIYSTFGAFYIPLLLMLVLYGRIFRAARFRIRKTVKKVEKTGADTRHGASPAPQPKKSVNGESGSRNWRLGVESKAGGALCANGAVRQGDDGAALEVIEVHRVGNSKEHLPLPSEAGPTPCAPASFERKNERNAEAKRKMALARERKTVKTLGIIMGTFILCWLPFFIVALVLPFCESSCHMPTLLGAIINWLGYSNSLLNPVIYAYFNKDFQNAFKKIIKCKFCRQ
Description: Inhibition of 3H-5-CT binding to human 5-HT1A receptors. To be noted: cloned human 5-HT1A receptors in HeLa cells (HA7); for inhibition at 0.1 µM: at 100 nM. How it is done:
The affinity of the compounds of the invention to 5-HT1A receptors was determined by measuring the inhibition of binding of a radioactive ligand at 5-HT1A receptors as described in the following test:
Inhibition of ^3H-5-CT Binding to Human 5-HT1A Receptors
By this method the inhibition by drugs of the binding of the 5-HT1A agonist ^3H-5-carboxamido tryptamine (3H-5-CT) to cloned human 5-HT1A receptors stably expressed in transfected HeLa cells (HA7) (Fargin, A. et al, J. Biol. Chem., 1989, 264, 14848) is determined in vitro. The assay was performed as a modification of the method described by Harrington, M. A. et at, J. Pharmacol. Exp. Ther., 1994, 268, 1098. Human 5-HT1A receptors (40 μg of cell homogenate) were incubated for 15 minutes at 37° C. in 50 mM Tris buffer at pH 7.7 in the presence of ^3H-5-CT. Non-specific binding was determined by including 10 μM of metergoline. The reaction was terminated by rapid filtration through Unifilter GF/B filters on a Tomtec Cell Harvester. Filters were counted in a Packard Top Counter.

The target of assay [2] is T2, human cloned dopamine D4.2 receptors (Homo sapiens, UniProt P21917, DEL265-296).
T2 construct: expressed in transfected cells; host or cells: CHO cells
T2 sequence (P21917 with tags, fused parts or gaps DEL265-296): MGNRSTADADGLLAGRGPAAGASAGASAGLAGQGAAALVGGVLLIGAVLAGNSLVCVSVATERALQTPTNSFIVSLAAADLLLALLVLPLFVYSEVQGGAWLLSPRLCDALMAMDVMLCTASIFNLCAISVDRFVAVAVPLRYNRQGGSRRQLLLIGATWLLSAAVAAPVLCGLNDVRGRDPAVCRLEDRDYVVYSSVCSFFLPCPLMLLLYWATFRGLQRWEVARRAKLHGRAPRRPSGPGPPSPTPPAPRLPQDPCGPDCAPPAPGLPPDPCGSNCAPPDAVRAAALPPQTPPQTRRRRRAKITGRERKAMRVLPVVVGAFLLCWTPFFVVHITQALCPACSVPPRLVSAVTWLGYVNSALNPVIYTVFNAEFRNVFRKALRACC
The assay is described as follows: Inhibition of the binding of 3H-YM-09151-2 to human dopamine D4 receptors. To be noted: human cloned dopamine D4.2 receptors in CHO-cells; for inhibition at 0.05 µM: at 50 nM. How it is done:
The compounds of the invention have also been tested for their affinity to dopamine D4 receptors in the following test.
Inhibition of the Binding of ^3H-YM-09151-2 to Human Dopamine D4 Receptors
By this method the inhibition by drugs of the binding of [^3H]YM-09151-2 (0.06 nM) to membranes of human cloned dopamine D4.2 receptors expressed in CHO-cells is determined in vitro. Method modified from NEN Life Science Products, Inc., technical data certificate PC2533-10/96.

pIC50: −log10 of the molar value.

`FC(F)(F)c1ccccc1SCCCN1CCN(c2cccc3c2OCCO3)CC1` [Compound 7ak, 1-(2,3-Dihydro-benzo[1,4]dioxin-5-yl)-4-[3-(2-trifluoromethyl-phenylsulfanyl)-propyl]-piperazine]: the inhibition at 0.1 µM in assay [1] is 93%. In addition, the inhibition at 0.05 µM in assay [2] turned out to be 98%.

Turning to `Fc1ccccc1SCCCCN1CCN(c2cccc3c2OCCO3)CC1` [Compound 7bf, 1-(2,3-Dihydro-benzo[1,4]dioxin-5-yl)-4-[4-(2-fluoro-phenylsulfanyl)-butyl]-piperazine], the inhibition at 0.1 µM in assay [1] is 101%. Also, the inhibition at 0.05 µM in assay [2] is 91%.

Turning to `Clc1ccccc1SCCCCN1CCN(c2cccc3c2OCCO3)CC1` [Compound 7be, 1-[4-(2-Chloro-phenylsulfanyl)-butyl]-4-(2,3-dihydro-benzo[1,4]dioxin-5-yl)-piperazine], in assay [1], the inhibition at 0.1 µM came to 102%. For the same molecule, the inhibition at 0.05 µM in assay [2] turned out to be 102%.

Consider `FC(F)(F)c1ccc(OCCCN2CCN(c3cccc4c3OCCO4)CC2)cc1` [Compound 2b, 1-(2,3-Dihydro-benzo[1,4]dioxin-5-yl)-4-[3-(4-trifluoromethyl-phenoxy)-propyl]-piperazine], for which the pIC50 in assay [1] is 7.82; in assay [2] it was 7.92.

For `Cc1ccc(Cl)c(OCCCCN2CCN(c3cccc4c3OCCO4)CC2)c1` [Compound 7ao, 1-[4-(2-Chloro-5-methyl-phenoxy)-butyl]-4-(2,3-dihydro-benzo[1,4]dioxin-5-yl)-piperazine], the inhibition at 0.1 µM in assay [1] is 97%. The inhibition at 0.05 µM in assay [2] worked out at 89%.

For `Clc1ccc(SCCCN2CCN(c3cccc4c3OCCO4)CC2)cc1Cl` [Compound 7am, 1-[3-(3,4-Dichloro-phenylsulfanyl)-propyl]-4-(2,3-dihydro-benzo[1,4]dioxin-5-yl)-piperazine], the inhibition at 0.1 µM in assay [1] turned out to be 100%. Also, the inhibition at 0.05 µM in assay [2] came to 99%.

In the case of `Clc1cccc(Cl)c1SCCCCN1CCN(c2cccc3c2OCCO3)CC1` [Compound 5ab, 1-[4-(2,6-Dichloro-phenylsulfanyl)-butyl]-4-(2,3-dihydro-benzo[1,4]dioxin-5-yl)-piperazine], the pIC50 is 8.72 in assay [1] and 8.68 in assay [2].

In the case of `CS(=O)(=O)c1cc(Cl)c(OCCCN2CCN(c3cccc4ccsc34)CC2)c(Cl)c1` [Compound 5ao, 1-Benzo[b]thiophen-7-yl-4-[3-(2,6-dichloro-4-methanesulfonyl-phenoxy)-propyl]-piperazine], the pIC50 in assay [1] was 8.42; in assay [2], 7.17.

Regarding `Fc1cc(Br)cc(F)c1OCCCN1CCN(c2cccc3c2OCCO3)CC1` [Compound 5cg, 1-[3-(4-Bromo-2,6-difluoro-phenoxy)-propyl]-4-(2,3-dihydro-benzo[1,4]dioxin-5-yl)-piperazine], the pIC50 in assay [1] was 8.77; in assay [2], 7.92.

Consider `Clc1cccc(SCCN2CCN(c3cccc4c3OCCO4)CC2)c1` [Compound 7au, 1-[2-(3-Chloro-phenylsulfanyl)-ethyl]-4-(2,3-dihydro-benzo[1,4]dioxin-5-yl)-piperazine], for which the inhibition at 0.1 µM in assay [1] is 84%. In addition, the inhibition at 0.05 µM in assay [2] worked out at 87%.

In the case of `Clc1ccc(SCCN2CCN(c3cccc4c3OCCO4)CC2)cc1Cl` [Compound 3a, 1-[2-(3,4-Dichloro-phenylsulfanyl)-ethyl]-4-(2,3-dihydro-benzof[, 4]dioxin-5-yl)-piperazine], the pIC50 in assay [1] was 7.12; in assay [2], 8.27.

As for `CC1(C)COc2c(N3CCN(CCCOc4c(Cl)cc(F)cc4Cl)CC3)cc(Cl)cc21` [Compound 5bl, 1-(5-Chloro-3,3-dimethyl-2,3-dihydro-benzofuran-7-yl)-4-[3-(2,6-dichloro-4-fluoro-phenoxy)-propyl]-piperazine], the pIC50 in assay [1] is 7.06; in assay [2], 7.59.

For `FC(F)(F)c1ccccc1OCCN1CCN(c2cccc3c2OCCO3)CC1` [Compound 7ae, 1-(2,3-Dihydro-benzo[1,4]dioxin-5-yl)-4-[2-(2-trifluoromethyl-phenoxy)-ethyl]-piperazine], the inhibition at 0.1 µM in assay [1] worked out at 82%. Also, the inhibition at 0.05 µM in assay [2] worked out at 75%.

As to `c1ccc(SCCCN2CCN(c3cccc4c3OCCO4)CC2)cc1` [Compound 4a, 1-(2,3-Dihydro-benzo[1,4]dioxin-5-yl)-4-(3-phenylsulfanyl-propyl)-piperazine], the figures for the pIC50 in assay [1] and in assay [2] were 8.55 and 8.89, respectively.

As for `Clc1ccccc1SCCCN1CCN(c2cccc3ccsc23)CC1` [Compound 5ce, 1-Benzo[b]thiophen-7-yl-4-[3-(2-chloro-phenylsulfanyl)-propyl]-piperazine], the pIC50 in assay [1] was 8.32; in assay [2], 7.80.

Turning to `Fc1ccc(SCCN2CCN(c3cccc4c3OCCO4)CC2)cc1` [Compound 3b, 1-(2,3-Dihydro-benzo[1,4]dioxin-5-yl)-4-[2-(4-fluoro-phenylsulfanyl)-ethyl]-piperazine], the pIC50 in assay [1] is 7.01; in assay [2], 8.37.

Turning to “1-[3-(Bromo-trifluoromethyl-phenylsulfanyl)-propyl]-4-(2,3-dihydro-benzo[1,4]dioxin-5-yl)-piperazine [Compound 5ap]”, the pIC50 in assay [1] was 8.21; in assay [2], 8.20.

`Clc1cccc(SCCN2CCN(c3cccc4c3OCCO4)CC2)c1Cl` [Compound 7ah, 1-[2-(2,3-Dichloro-phenylsulfanyl)-ethyl]-4-(2,3-dihydro-benzo[1,4]dioxin-5-yl)-piperazine]: in assay [1], the pIC50 is 8.80. In assay [2], the inhibition at 0.05 µM came out at 87%.

Regarding `Fc1cc(F)c(OCCCN2CCN(c3cccc4c3OCCO4)CC2)c(Br)c1` [Compound 5bo, 1-[3-(2-Bromo-4,6-difluoro-phenoxy)-propyl]-4-(2,3-dihydro-benzo[1,4]dioxin-5-yl)-piperazine], the pIC50 in assay [1] was 8.77; in assay [2], 8.62.

As to `CC1(C)Cc2cc(Cl)cc(N3CCN(CCCOc4c(Cl)cc(S(C)(=O)=O)cc4Cl)CC3)c2O1` [Compound 5bh, 1-(5-Chloro-2,2-dimethyl-2,3-dihydro-benzofuran-7-yl)-4-[3-(2,6-dichloro-4-methanesulfonyl-phenoxy)-propyl]-piperazine], the pIC50 in assay [1] was 8.77; in assay [2] it was 7.12.

As to `c1ccc(SCCN2CCN(c3cccc4c3OCCO4)CC2)cc1` [Compound 7aa, 1-(2,3-Dihydro-benzo[1,4]dioxin-5-yl)-4-(2-phenylsulfanyl-ethyl)-piperazine], the inhibition at 0.1 µM in assay [1] turned out to be 78%. For the same molecule, the inhibition at 0.05 µM in assay [2] came to 84%.

As for `Fc1ccccc1SCCCN1CCN(c2cccc3c2OCCO3)CC1` [Compound 7ba, 1-(2,3-Dihydro-benzo[1,4]dioxin-5-yl)-4-[3-(2-fluoro-phenylsulfanyl)-propyl]-piperazine], the inhibition at 0.1 µM in assay [1] is 97%. In assay [2], the inhibition at 0.05 µM worked out at 84%.

For the molecule `COc1ccccc1SCCCCN1CCN(c2cccc3c2OCCO3)CC1` [Compound 7bm, 1-(2,3-Dihydro-benzo[1,4]dioxin-5-yl)-4-[4-(2-methoxy-phenylsulfanyl)-butyl]-piperazine], in assay [1], the inhibition at 0.1 µM was determined as 95%. The inhibition at 0.05 µM in assay [2] came to 83%.

Take `N#Cc1cc(Br)c(OCCCN2CCN(c3cccc4c3OCCO4)CC2)c(Br)c1` [Compound 5bx, 3,5-Dibromo-4-{3-[4-(2,3-dihydro-benzo[1,4]dioxin-5-yl)-piperazin-1-yl]-propoxy}-benzonitrile]: the pIC50 in assay [1] is 8.66; in assay [2], 7.72.

Usually inhibition stands for the change of the read-out against control, counted positive when it falls. As a reminder, the pIC50 is the negative decadic logarithm of the IC50, by convention in mol/L. Low readings indicate a large IC50, high ones a small IC50.
